Here are results for 15 compounds from US10538555B2, “Macrocyclic inhibitors of the PD-1/PD-L1 and CD80(B7-1)/PD-L1 protein/protein interactions” (BRISTOL-MYERS SQUIBB COMPANY, priority 2014, dated 2020).

pIC50: −log10 of the molar value. Where two headings read alike, the source gives them in different places. *1 amine or outer side, *2 acyl side, *3 side chain or, on linkers, in order; H or OH if unused. Where a SMILES comes first, the peptide text is derived from it. Bridges are numbered along the chain shown (N, C = ends). [ ]: non-standard residue; d: D form. ξ: configuration not given here. X3 = O=C(C[C@@H](CO)C(=O)[*:2])[C@H](Cc1c[nH]c2ccccc12)N[*:1]; Lac(3-(indol-3-yl)) = O=C(O)[C@@H](O)Cc1c[nH]c2ccccc12; X2 = NC(=O)C[C@H](N[*:1])C(=O)C1CCC[C@H]1C(=O)[*:2]; Phe(3,4,5-F3) = N[C@@H](Cc1cc(F)c(F)c(F)c1)C(=O)O; NMePhe(4-Me) = CN[C@@H](Cc1ccc(C)cc1)C(=O)O; NMePhe(4-F) = CN[C@@H](Cc1ccc(F)cc1)C(=O)O; Bta = N[C@@H](Cc1csc2ccccc12)C(=O)O; Hyp = O=C(O)[C@@H]1C[C@@H](O)CN1; NMeF = CN[C@@H](Cc1ccccc1)C(=O)O; dHyp = O=C(O)[C@H]1C[C@H](O)CN1; NMehSer = CN[C@@H](CCO)C(=O)O; NMeNle = CCCC[C@H](NC)C(=O)O; dNle = CCCC[C@@H](N)C(=O)O; NMeA = CN[C@@H](C)C(=O)O; Orn = NCCC[C@H](N)C(=O)O; Dap = NC[C@H](N)C(=O)O; ξC = NC(CS)C(=O)O

This test deals with T1, Human PD-L1/PD-1 (Homo sapiens, UniProt Q9NZQ7).
T1 construct: TVMV protease cleavage site (C); made in house; host or cells: HEK293T cells
The test is described as follows: HTRF Human PD-L1/PD-1 binding assay (PD-1-Ig/PD-L1-His). As to conditions: PD-L1-His 10 nM, PD-1-Ig 20 nM. A digest of the protocol: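 Soluble HEK293T-expressed proteins: hPD-L1-His 10 nM, hPD-1-Ig 20 nM final. Cpd + PD-L1 15 min, + PD-1 15 min, + Eu anti-Ig 1 nM/APC anti-His 20 nM 30 min. Buffer dPBS, 0.1% BSA, 0.05% Tween-20. TR-FRET 665/620.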
In general terms: In TR-FRET formats the signal depends on donor and acceptor labels being close together.

Where [1] appears, read: class symbol, read-out: HTRF Human PD-L1/PD-1 Binding Assay IC50 Range.
Where [2] appears, read: read-out: HTRF Human PD-L1/PD-1 Binding Assay IC50.

T1 sequence (Q9NZQ7 with tags, fused parts or gaps): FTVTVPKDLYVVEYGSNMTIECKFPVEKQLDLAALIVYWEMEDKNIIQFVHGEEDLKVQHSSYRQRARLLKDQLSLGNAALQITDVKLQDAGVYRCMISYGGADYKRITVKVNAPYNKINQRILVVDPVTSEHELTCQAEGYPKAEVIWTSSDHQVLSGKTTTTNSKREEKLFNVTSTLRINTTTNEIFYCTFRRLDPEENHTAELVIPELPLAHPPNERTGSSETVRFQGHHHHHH

In the case of `CCCC[C@H]1C(=O)N2C[C@@H](O)C[C@@H]2C(=O)N[C@@H](CC(=O)O)C(=O)N[C@@H](C(C)C)C(=O)N(C)[C@@H](Cc2ccc(F)cc2)C(=O)N[C@@H](CCCN)C(=O)N2CCC[C@@H]2C(=O)N[C@@H](Cc2c[nH]c3ccccc23)C(=O)N[C@@H](Cc2ccc(O)cc2)C(=O)N[C@@H](CCCN)C(=O)N[C@H](C(=O)NCC(N)=O)CSCC(=O)N[C@@H](Cc2cc(F)c(F)c(F)c2)C(=O)N(C)[C@@H](Cc2ccccc2)C(=O)N1C` [Example 10120] ({CH2CO}-[Phe(3,4,5-F3)][NMeF][NMeNle][dHyp]DV[NMePhe(4-F)][Orn][dP]WY[Orn]CG-NH2; thioether N-13), under setting [1], the pIC50 was 8.00 to 9.00.

Turning to `CCCC[C@H]1C(=O)N2C[C@@H](O)C[C@@H]2C(=O)N[C@@H](CC(=O)O)C(=O)N[C@@H](C(C)C)C(=O)N(C)[C@@H](Cc2ccc(C)cc2)C(=O)N[C@@H](CCCN)C(=O)N2CCC[C@@H]2C(=O)N[C@@H](Cc2c[nH]c3ccccc23)C(=O)N[C@@H](Cc2ccc(O)cc2)C(=O)N[C@@H](CCCN)C(=O)N[C@H](C(=O)NCC(N)=O)CSCC(=O)N[C@@H](Cc2cc(F)c(F)c(F)c2)C(=O)N(C)[C@@H](Cc2ccccc2)C(=O)N1C` [Example 10121] ({CH2CO}-[Phe(3,4,5-F3)][NMeF][NMeNle][dHyp]DV[NMePhe(4-Me)][Orn][dP]WY[Orn]CG-NH2; thioether N-13), the pIC50 under setting [1] is 6.00 to 7.00.

For `CCCC[C@H]1NC(=O)[C@H](Cc2csc3ccccc23)NC(=O)[C@H](CO)NC(=O)[C@H](Cc2c[nH]c3ccccc23)OC(=O)[C@@H]2CCCN2C(=O)[C@H](CC(C)C)NC(=O)[C@H](Cc2cnc[nH]2)NC(=O)[C@@H]2CCCN2C(=O)[C@H](CC(N)=O)NC(=O)[C@H](C)N(C)C(=O)[C@H](Cc2ccc(O)cc2)NC(=O)CSCC(C(=O)NCC(N)=O)NC(=O)[C@H](CCCNC(=N)N)NC(=O)[C@H](CCCC)N(C)C1=O` (stereo partly drawn) [Example 10122] ({CH2CO}-Y[NMeA]NPHLP[Lac(3-(indol-3-yl))]S[Bta][dNle][NMeNle]R[ξC]G-NH2; thioether N-14), the pIC50 under setting [1] is 5.00 to 6.00.

Consider `CCCC[C@H]1NC(=O)[C@H](Cc2csc3ccccc23)NC(=O)[C@H](CO)NC(=O)[C@H](Cc2c[nH]c3ccccc23)NC(=O)[C@@H]2C[C@@H](O)CN2C(=O)[C@H](CC(C)C)NC(=O)[C@H](Cc2cnc[nH]2)NC(=O)[C@@H]2CCCN2C(=O)[C@H](CC(N)=O)NC(=O)[C@H](C)N(C)C(=O)[C@H](Cc2ccc(O)cc2)NC(=O)CSCC(C(=O)NCC(N)=O)NC(=O)[C@H](CCCNC(=N)N)NC(=O)[C@H](CCCC)N(C)C1=O` (stereo partly drawn) [Example 10123] ({CH2CO}-Y[NMeA]NPHL[Hyp]WS[Bta][dNle][NMeNle]R[ξC]G-NH2; thioether N-14), for which the pIC50 under setting [1] was 6.00 to 7.00.

As to `CCCC[C@H]1NC(=O)[C@H](Cc2c[nH]c3ccccc23)NC(=O)[C@H](CO)NC(=O)[C@H](Cc2c[nH]c3ccccc23)NC(=O)[C@@H]2C[C@@H](O)CN2C(=O)[C@H](CCC(N)=O)NC(=O)[C@H](Cc2cnc[nH]2)NC(=O)[C@@H]2CCCN2C(=O)[C@H](CC(N)=O)NC(=O)[C@H](C)N(C)C(=O)[C@H](Cc2ccc(O)cc2)NC(=O)CSCC(C(=O)NCC(N)=O)NC(=O)[C@H](CCCNC(=N)N)NC(=O)[C@H](CCCC)N(C)C1=O` (stereo partly drawn) [Example 10126] ({CH2CO}-Y[NMeA]NPHQ[Hyp]WSW[dNle][NMeNle]R[ξC]G-NH2; thioether N-14), under setting [1], the pIC50 was 5.00 to 6.00.

As to `CCCC[C@H]1NC(=O)[C@H](Cc2c[nH]c3ccccc23)NC(=O)[C@H](CO)CC(=O)[C@H](Cc2c[nH]c3ccccc23)NC(=O)[C@@H]2C[C@@H](O)CN2C(=O)[C@H](CCC(N)=O)NC(=O)[C@H](Cc2cnc[nH]2)NC(=O)[C@@H]2CCCC2C(=O)[C@H](CC(N)=O)NC(=O)[C@H](C)N(C)C(=O)[C@H](Cc2ccc(O)cc2)NC(=O)CSCC(C(=O)NCC(N)=O)NC(=O)[C@H](CCC(=O)O)NC(=O)[C@H](CCCC)N(C)C1=O` (stereo partly drawn) [Example 10127] ({CH2CO}-Y[NMeA][X2]HQ[Hyp][X3]W[dNle][NMeNle]E[ξC]G-NH2; thioether N-12), the pIC50 under setting [1] was 5.00 to 6.00.

`CCCC[C@H]1NC(=O)[C@H](Cc2c[nH]c3ccccc23)NC(=O)[C@H](CO)NC(=O)[C@H](Cc2c[nH]c3ccccc23)NC(=O)[C@@H]2C[C@@H](O)CN2C(=O)[C@H](CCC(N)=O)NC(=O)[C@H](Cc2cnc[nH]2)NC(=O)[C@@H]2CCCN2C(=O)[C@H](CC(=O)O)NC(=O)[C@H](C)N(C)C(=O)[C@H](Cc2ccc(O)cc2)NC(=O)CSCC(C(=O)NCC(N)=O)NC(=O)[C@H](CCC(=O)O)NC(=O)[C@H](CCCC)N(C)C1=O` (stereo partly drawn) [Example 10128] ({CH2CO}-Y[NMeA]DPHQ[Hyp]WSW[dNle][NMeNle]E[ξC]G-NH2; thioether N-14): the pIC50 under setting [1] was 5.00 to 6.00.

Consider `CCCC[C@H]1NC(=O)[C@H](Cc2c[nH]c3ccccc23)NC(=O)[C@H](CO)NC(=O)[C@H](Cc2c[nH]c3ccccc23)NC(=O)[C@@H]2C[C@@H](O)CN2C(=O)[C@H](CCCN)NC(=O)[C@H](Cc2cnc[nH]2)NC(=O)[C@@H]2CCCN2C(=O)[C@H](CC(N)=O)NC(=O)[C@H](C)N(C)C(=O)[C@H](Cc2ccc(O)cc2)NC(=O)CSCC(C(=O)NCC(N)=O)NC(=O)[C@H](CCC(=O)O)NC(=O)[C@H](CCCC)N(C)C1=O` (stereo partly drawn) [Example 10129] ({CH2CO}-Y[NMeA]NPH[Orn][Hyp]WSW[dNle][NMeNle]E[ξC]G-NH2; thioether N-14), for which the pIC50 under setting [1] was 5.00 to 6.00.

For `CCCC[C@H]1NC(=O)[C@H](Cc2c[nH]c3ccccc23)NC(=O)[C@H](CO)NC(=O)[C@H](Cc2c[nH]c3ccccc23)NC(=O)[C@@H]2C[C@@H](O)CN2C(=O)[C@H](CCCN)NC(=O)[C@H](Cc2cnc[nH]2)NC(=O)[C@@H]2CCCN2C(=O)[C@H](CC(=O)O)NC(=O)[C@H](C)N(C)C(=O)[C@H](Cc2ccc(O)cc2)NC(=O)CSCC(C(=O)NCC(N)=O)NC(=O)[C@H](CCC(=O)O)NC(=O)[C@H](CCCC)N(C)C1=O` (stereo partly drawn) [Example 10130] ({CH2CO}-Y[NMeA]DPH[Orn][Hyp]WSW[dNle][NMeNle]E[ξC]G-NH2; thioether N-14), the pIC50 under setting [1] was 5.00 to 6.00.

Turning to `CCCC[C@H]1NC(=O)[C@H](Cc2c[nH]c3ccccc23)NC(=O)[C@H](CO)NC(=O)[C@H](Cc2c[nH]c3ccccc23)NC(=O)[C@@H]2C[C@@H](O)CN2C(=O)[C@H](CC(C)C)NC(=O)[C@H](Cc2cnc[nH]2)NC(=O)[C@@H]2CCCN2C(=O)[C@H](CC(N)=O)NC(=O)[C@H](C)N(C)C(=O)[C@H](Cc2ccc(O)cc2)NC(=O)CSCC(C(=O)NCC(N)=O)NC(=O)[C@H](CCC(=O)O)NC(=O)[C@H](CCCC)N(C)C1=O` (stereo partly drawn) [Example 10131], the pIC50 under setting [2] is 5.54.

With `CCCC[C@H]1NC(=O)[C@H](Cc2c[nH]c3ccccc23)NC(=O)[C@H](CO)NC(=O)[C@H](Cc2c[nH]c3ccccc23)NC(=O)[C@@H]2C[C@@H](O)CN2C(=O)[C@H](CC(C)C)NC(=O)[C@H](Cc2cnc[nH]2)NC(=O)[C@@H]2CCCN2C(=O)[C@H](CC(=O)O)NC(=O)[C@H](C)N(C)C(=O)[C@H](Cc2ccc(O)cc2)NC(=O)CSCC(C(=O)NCC(N)=O)NC(=O)[C@H](CCC(=O)O)NC(=O)[C@H](CCCC)N(C)C1=O` (stereo partly drawn) [Example 10132] ({CH2CO}-Y[NMeA]DPHL[Hyp]WSW[dNle][NMeNle]E[ξC]G-NH2; thioether N-14), the pIC50 under setting [1] was 6.00 to 7.00.

Take `CCCC[C@H]1C(=O)N[C@@H](CCC(=O)O)C(=O)N[C@H](C(=O)NCC(N)=O)CSCC(=O)N[C@@H](Cc2ccc(O)cc2)C(=O)N(C)[C@@H](C)C(=O)N[C@@H](CC(=O)O)C(=O)N2CCC[C@H]2C(=O)N[C@@H](Cc2c[nH]cn2)C(=O)N[C@@H](CCC(N)=O)C(=O)N2C[C@H](O)C[C@H]2C(=O)N[C@@H](Cc2c[nH]c3ccccc23)C(=O)N[C@@H](CO)C(=O)N[C@@H](Cc2c[nH]c3ccccc23)C(=O)N(C)[C@@H](CCOC)C(=O)N1C` [Example 10136] ({CH2CO}-Y[NMeA]DPHQ[Hyp]WSW[NMehSer](Me)[NMeNle]ECG-NH2; thioether N-14): the pIC50 under setting [1] was 8.00 to 9.00.

As to `CCCC[C@H]1C(=O)N[C@@H](CC(C)C)C(=O)N[C@H](C(=O)NCC(N)=O)CSCC(=O)N[C@@H](Cc2ccc(O)cc2)C(=O)N(C)[C@@H](C)C(=O)N[C@@H](CC(N)=O)C(=O)N2CCC[C@H]2C(=O)N[C@@H](Cc2c[nH]cn2)C(=O)N[C@@H](CCC(N)=O)C(=O)N2C[C@H](O)C[C@H]2C(=O)N[C@@H](Cc2c[nH]c3ccccc23)C(=O)NCC(=O)N[C@@H](Cc2c[nH]c3ccccc23)C(=O)N(C)[C@@H](CCOC)C(=O)N1C` [Example 10137] ({CH2CO}-Y[NMeA]NPHQ[Hyp]WGW[NMehSer](Me)[NMeNle]LCG-NH2; thioether N-14), the pIC50 under setting [1] was 7.00 to 8.00.

With `CCCC[C@H]1C(=O)N[C@@H](CO)C(=O)N[C@H](C(=O)NCC(N)=O)CSCC(=O)N[C@@H](Cc2ccc(O)cc2)C(=O)N(C)[C@@H](C)C(=O)N[C@@H](CC(N)=O)C(=O)N2CCC[C@H]2C(=O)N[C@@H](Cc2c[nH]cn2)C(=O)N[C@@H](CCC(N)=O)C(=O)N2C[C@H](O)C[C@H]2C(=O)N[C@@H](Cc2c[nH]c3ccccc23)C(=O)N[C@@H](CO)C(=O)N[C@@H](Cc2c[nH]c3ccccc23)C(=O)N(C)[C@@H](CCOC)C(=O)N1C` [Example 10138] ({CH2CO}-Y[NMeA]NPHQ[Hyp]WSW[NMehSer](Me)[NMeNle]SCG-NH2; thioether N-14), under setting [2], the pIC50 is 6.75.

For the compound `CCCC[C@H]1C(=O)N[C@@H](CN)C(=O)N[C@H](C(=O)NCC(N)=O)CSCC(=O)N[C@@H](Cc2ccc(O)cc2)C(=O)N(C)[C@@H](C)C(=O)N[C@@H](CC(=O)O)C(=O)N2CCC[C@H]2C(=O)N[C@@H](Cc2c[nH]cn2)C(=O)N[C@@H](CCC(N)=O)C(=O)N2C[C@H](O)C[C@H]2C(=O)N[C@@H](Cc2c[nH]c3ccccc23)C(=O)N[C@@H](CO)C(=O)N[C@@H](Cc2c[nH]c3ccccc23)C(=O)N(C)[C@@H](CCOC)C(=O)N1C` [Example 10139] ({CH2CO}-Y[NMeA]DPHQ[Hyp]WSW[NMehSer](Me)[NMeNle][Dap]CG-NH2; thioether N-14), under setting [1], the pIC50 is 8.00 to 9.00.
